Experimental data reported in PubChem BioAssay (NCI).
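These data come from cells grown in 96-well plates and exposed to compound for 48 hours at five concentrations. TGI: total growth inhibition.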

Tests used:
Test in all cases: NCI-60 cell line screen, 48 h
CAKI-1 renal = test system: CAKI-1 renal
COLO 205 colon = test system: COLO 205 colon
HCT-116 colon = test system: HCT-116 colon
M14 melanoma = test system: M14 melanoma
MCF7 breast = test system: MCF7 breast
NCI-H460 lung = test system: NCI-H460 lung
NCI/ADR-RES ovarian = test system: NCI/ADR-RES ovarian
OVCAR-4 ovarian = test system: OVCAR-4 ovarian
OVCAR-8 ovarian = test system: OVCAR-8 ovarian
SF-295 CNS = test system: SF-295 CNS
SF-539 CNS = test system: SF-539 CNS
SK-MEL-28 melanoma = test system: SK-MEL-28 melanoma
SK-MEL-5 melanoma = test system: SK-MEL-5 melanoma
SNB-19 CNS = test system: SNB-19 CNS
SNB-75 CNS = test system: SNB-75 CNS
SW-620 colon = test system: SW-620 colon
UACC-257 melanoma = test system: UACC-257 melanoma
UO-31 renal = test system: UO-31 renal
SK-OV-3 ovarian = test system: SK-OV-3 ovarian
MALME-3M melanoma = test system: MALME-3M melanoma

Structure (SMILES) | TGI (CAKI-1 renal) [µM] | TGI (COLO 205 colon) [µM] | TGI (HCT-116 colon) [µM] | TGI (M14 melanoma) [µM] | TGI (MCF7 breast) [µM] | TGI (NCI-H460 lung) [µM] | TGI (NCI/ADR-RES ovarian) [µM] | TGI (OVCAR-4 ovarian) [µM] | TGI (OVCAR-8 ovarian) [µM] | TGI (SF-295 CNS) [µM] | TGI (SF-539 CNS) [µM] | TGI (SK-MEL-28 melanoma) [µM] | TGI (SK-MEL-5 melanoma) [µM] | TGI (SNB-19 CNS) [µM] | TGI (SNB-75 CNS) [µM] | TGI (SW-620 colon) [µM] | TGI (UACC-257 melanoma) [µM] | TGI (UO-31 renal) [µM] | TGI (SK-OV-3 ovarian) [µM] | TGI (MALME-3M melanoma) [µM]
CN(C)Cc1cc(N=Nc2ccccc2Cl)cc(CN(C)C)c1O | > 100 | > 100 | > 100 | 49.1 | > 100 | > 100 | > 100 | > 100 | > 100 | > 100 | > 100 | 33.6 | 32 | > 100 | > 100 | > 100 | 41.4 | > 100 | – | –
O=C1N[C@@H]([C@H](CCCCCO)OC(=O)c2ccccc2)CO1 | > 100 | – | > 100 | – | > 100 | > 100 | > 100 | > 100 | > 100 | > 100 | > 100 | > 100 | > 100 | > 100 | > 100 | > 100 | > 100 | > 100 | > 100 | –
O=[N+]([O-])c1ccc(N=NN2CCCC2)cc1 | > 100 | > 100 | > 100 | > 100 | > 100 | > 100 | > 100 | > 100 | > 100 | > 100 | > 100 | – | > 100 | > 100 | > 100 | > 100 | > 100 | > 100 | > 100 | –
COc1cc2c(c(OC)c1OC)C(=O)[C@H]1OC(=O)N[C@@H]21 | > 100 | > 100 | > 100 | > 100 | > 100 | – | > 100 | > 100 | > 100 | > 100 | > 100 | > 100 | – | > 100 | > 100 | > 100 | > 100 | > 100 | > 100 | –
N#Cc1c2c([nH]c(=O)c1C#N)CCCC2 | > 100 | > 100 | > 100 | > 100 | > 100 | > 100 | > 100 | – | > 100 | > 100 | > 100 | > 100 | > 100 | > 100 | > 100 | > 100 | > 100 | > 100 | > 100 | > 100
COc1ccc(-c2c(C#N)c(S)n(C3OC(CO)C(O)C(O)C3O)c(=O)c2C#N)cc1 (stereo unspecified) | > 100 | – | – | > 100 | > 100 | > 100 | > 100 | – | > 100 | > 100 | > 100 | > 100 | > 100 | > 100 | > 100 | > 100 | > 100 | > 100 | > 100 | > 100
